Reference: US20210254056A1, “IDENTIFICATION AND TARGETED MODULATION OF GENE SIGNALING NETWORKS” (CAMP4 THERAPEUTICS CORPORATION, priority 2017, published 2021)

Legend:
[1] = system: Early erythroblast progenitor cells derived from cord blood; test: Reversion of immortality after doxycycline withdrawal (qRT-PCR, cell size); assay type: cell-based, human
hepatocytes [2] = test: qRT-PCR validation of the Example 12 RNA-seq results;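 note: Compound-treated versus DMSO control, target Ct normalized to GAPDH or β-actin reference (ΔΔCt method), positive values mean higher expression than DMSO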
hepatocytes [3] = test: RNA-seq of hepatocytes stimulated with the compounds of Table 68; settings: RNA-seq; for # of genes having significantly altered expression: hepatocytes stimulated with the compound, significance: FPKM≥1, q-value≤0.05, log 2 fold change≥1.5
[4] = sample D2-Dox− (2 days after doxycycline withdrawn)
[5] = sample D3-Dox− (3 days after doxycycline withdrawn)
[6] = sample D4-Dox− (4 days after doxycycline withdrawn)
[7] = sample D5-Dox− (5 days after doxycycline withdrawn)
[8] = sample D2-dox+ (day 2, on doxycycline; reference)
[9] = sample D6-dox− (6 days after doxycycline withdrawn)

## C[C@H]1c2cccc(O)c2C(=O)C2=C(O)[C@]3(O)C(=O)C(C(N)=O)=C(O)[C@@H](N(C)C)[C@@H]3[C@@H](O)[C@@H]21 [Dox]
[1]; [4]
  RQ of ALAS2: 2.98
  RQ of BCLXL: 0.29
  RQ of HBB: 7.81
  RQ of MYC: 0.04
  RQ of RPS19: 0.28
  RQ of p21: 2.31
  RQ of p53: 0.40
[1]; [5]
  RQ of ALAS2: 1.44
  RQ of BCLXL: 0.11
  RQ of HBB: 5.57
  RQ of MYC: 0.03
  RQ of RPS19: 0.21
  RQ of p21: 1.05
  RQ of p53: 0.21
[1]; [6]
  RQ of ALAS2: 0.94
  RQ of BCLXL: 0.07
  RQ of HBB: 4.89
  RQ of MYC: 0.06
  RQ of RPS19: 0.28
  RQ of p21: 2.03
  RQ of p53: 0.22
[1]; [7]
  RQ of ALAS2: 0.40
  RQ of BCLXL: 0.04
  RQ of HBB: 2.13
  RQ of MYC: 0.06
  RQ of RPS19: 0.27
  RQ of p21: 1.61
  RQ of p53: 0.20

## C[C@]12C=CC(=O)C=C1CC[C@@H]1[C@@H]2C(=O)C[C@@]2(C)[C@H]1CC[C@]2(O)C(=O)CO [MT-861, Prednisone]
Hepatocytes [2]; log 2 fold change in AMACR gene expression
  qRT-PCR log2fc, AMACR: −0.35
Hepatocytes [2]; log 2 fold change in ARG1 gene expression
  qRT-PCR log2fc, ARG1: 1.53
Hepatocytes [2]; log 2 fold change in CA2 gene expression
  qRT-PCR log2fc, CA2: −0.1
Hepatocytes [2]; log 2 fold change in CIDEC gene expression
  qRT-PCR log2fc, CIDEC: 1.1
Hepatocytes [2]; log 2 fold change in CPS1 gene expression
  qRT-PCR log2fc, CPS1: 0.61
Hepatocytes [2]; log 2 fold change in ENO3 gene expression
  qRT-PCR log2fc, ENO3: −0.03
Hepatocytes [2]; log 2 fold change in G6PC gene expression
  qRT-PCR log2fc, G6PC: 0.76
Hepatocytes [2]; log 2 fold change in GYS2 gene expression
  qRT-PCR log2fc, GYS2: 0.71
Hepatocytes [2]; log 2 fold change in HGD gene expression
  qRT-PCR log2fc, HGD: 0.5
Hepatocytes [2]; log 2 fold change in HOGA1 gene expression
  qRT-PCR log2fc, HOGA1: 1.47
Hepatocytes [2]; log 2 fold change in HPGD gene expression
  qRT-PCR log2fc, HPGD: 0.36
Hepatocytes [2]; log 2 fold change in NCF2 gene expression
  qRT-PCR log2fc, NCF2: −0.4
Hepatocytes [2]; log 2 fold change in RMRP gene expression
  qRT-PCR log2fc, RMRP: −0.33
Hepatocytes [2]; log 2 fold change in SLC37A4 gene expression
  qRT-PCR log2fc, SLC37A4: 0.99
Hepatocytes [2]; log 2 fold change in TAT gene expression
  qRT-PCR log2fc, TAT: 3.26
Hepatocytes [2]; log 2 fold change in TDO2 gene expression
  qRT-PCR log2fc, TDO2: 1.41
Hepatocytes [3]; log 2 fold change in AMACR gene expression, hepatocytes, Cuffdiff
  Cuffdiff log2fc, AMACR: −1.4
Hepatocytes [3]; log 2 fold change in AMACR gene expression, hepatocytes, DESeq
  DESeq log2fc, AMACR: −1.24
Hepatocytes [3]; log 2 fold change in ARG1 gene expression, hepatocytes, Cuffdiff
  Cuffdiff log2fc, ARG1: 1.48
Hepatocytes [3]; log 2 fold change in ARG1 gene expression, hepatocytes, DESeq
  DESeq log2fc, ARG1: 1.59
Hepatocytes [3]; log 2 fold change in CA2 gene expression, hepatocytes, Cuffdiff
  Cuffdiff log2fc, CA2: −1.05
Hepatocytes [3]; log 2 fold change in CA2 gene expression, hepatocytes, DESeq
  DESeq log2fc, CA2: −0.95
Hepatocytes [3]; log 2 fold change in CIDEC gene expression, hepatocytes, Cuffdiff
  Cuffdiff log2fc, CIDEC: 1.02
Hepatocytes [3]; log 2 fold change in CIDEC gene expression, hepatocytes, DESeq
  DESeq log2fc, CIDEC: 1.19
Hepatocytes [3]; log 2 fold change in CPS1 gene expression, hepatocytes, Cuffdiff
  Cuffdiff log2fc, CPS1: 2.14
Hepatocytes [3]; log 2 fold change in CPS1 gene expression, hepatocytes, DESeq
  DESeq log2fc, CPS1: 2.17
Hepatocytes [3]; log 2 fold change in ENO3 gene expression, hepatocytes, Cuffdiff
  Cuffdiff log2fc, ENO3: −1.24
Hepatocytes [3]; log 2 fold change in ENO3 gene expression, hepatocytes, DESeq
  DESeq log2fc, ENO3: −1.03
Hepatocytes [3]; log 2 fold change in G6PC gene expression, hepatocytes, Cuffdiff
  Cuffdiff log2fc, G6PC: 1.02
Hepatocytes [3]; log 2 fold change in G6PC gene expression, hepatocytes, DESeq
  DESeq log2fc, G6PC: 1.03
Hepatocytes [3]; log 2 fold change in GYS2 gene expression, hepatocytes, Cuffdiff
  Cuffdiff log2fc, GYS2: 2.21
Hepatocytes [3]; log 2 fold change in GYS2 gene expression, hepatocytes, DESeq
  DESeq log2fc, GYS2: 2.49
Hepatocytes [3]; log 2 fold change in HGD gene expression, hepatocytes, Cuffdiff
  Cuffdiff log2fc, HGD: 1.23
Hepatocytes [3]; log 2 fold change in HGD gene expression, hepatocytes, DESeq
  DESeq log2fc, HGD: 1.31
Hepatocytes [3]; log 2 fold change in HOGA1 gene expression, hepatocytes, Cuffdiff
  Cuffdiff log2fc, HOGA1: 1
Hepatocytes [3]; log 2 fold change in HOGA1 gene expression, hepatocytes, DESeq
  DESeq log2fc, HOGA1: 1.04
Hepatocytes [3]; log 2 fold change in HPGD gene expression, hepatocytes, Cuffdiff
  Cuffdiff log2fc, HPGD: 2.07
Hepatocytes [3]; log 2 fold change in HPGD gene expression, hepatocytes, DESeq
  DESeq log2fc, HPGD: 2.29
Hepatocytes [3]; log 2 fold change in NCF2 gene expression, hepatocytes, Cuffdiff
  Cuffdiff log2fc, NCF2: −1.71
Hepatocytes [3]; log 2 fold change in NCF2 gene expression, hepatocytes, DESeq
  DESeq log2fc, NCF2: −1.6
Hepatocytes [3]; log 2 fold change in RMRP gene expression, hepatocytes, Cuffdiff
  Cuffdiff log2fc, RMRP: −1.43
Hepatocytes [3]; log 2 fold change in RMRP gene expression, hepatocytes, DESeq
  DESeq log2fc, RMRP: −0.78
Hepatocytes [3]; log 2 fold change in SLC37A4 gene expression, hepatocytes, Cuffdiff
  Cuffdiff log2fc, SLC37A4: 1.16
Hepatocytes [3]; log 2 fold change in SLC37A4 gene expression, hepatocytes, DESeq
  DESeq log2fc, SLC37A4: 1.18
Hepatocytes [3]; log 2 fold change in TAT gene expression, hepatocytes, Cuffdiff
  Cuffdiff log2fc, TAT: 2.37
Hepatocytes [3]; log 2 fold change in TAT gene expression, hepatocytes, DESeq
  DESeq log2fc, TAT: 2.48
Hepatocytes [3]; log 2 fold change in TDO2 gene expression, hepatocytes, Cuffdiff
  Cuffdiff log2fc, TDO2: 1.05
Hepatocytes [3]; log 2 fold change in TDO2 gene expression, hepatocytes, DESeq
  DESeq log2fc, TDO2: 1.21

## C[C@H]1c2cccc(O)c2C(=O)C2=C(O)[C@]3(O)C(=O)C(C(N)=O)=C(O)[C@@H](N(C)C)[C@@H]3[C@@H](O)[C@@H]21 [dox]
[1]; [8]
  RQ of ALAS2: 1.00
  RQ of BCLXL: 1.00
  RQ of HBB: 1.00
  RQ of MYC: 1.00
  RQ of p21: 1.00
  RQ of p53: 1.00
[1]; sample D2-dox+ (day 2, on doxycycline; reference), B-ACTIN control
  RQ (relative quantification of expression) of RPS19: 1.00
[1]; [9]
  RQ of ALAS2: 0.17
  RQ of BCLXL: 0.03
  RQ of HBB: 0.57
  RQ of MYC: 0.03
  RQ of RPS19: 0.21
  RQ of p21: 1.14
  RQ of p53: 0.16

B1: GDF10 (BMP3b) (protein, UniProt P55107 369-478, looked up)
Growth/differentiation factor …: QWDEPRVCSRRYLKVDFADIGWNEWIISPKSFDAYYCAGACEFPMPKIVRPSNHATIQSIVRAVGIIPGIPEPCCVPDKMNSLGVLFLDENRNVVLKVYPNMSVDTCACR
Hepatocytes [3]
  # of genes having significantly altered expression: 855

B2: BMP4 (protein, UniProt P12644 293-408, looked up)
Bone morphogenetic protein 4: SPKHHSQRARKKNKNCRRHSLYVDFSDVGWNDWIVAPPGYQAFYCHGDCPFPLADHLNSTNHAIVQTLVNSVNSSIPKACCVPTELSAISMLYLDEYDKVVLKNYQEMVVEGCGCR
Hepatocytes [3]
  # of genes having significantly altered expression: 2218

B3: Wnt3a (protein, UniProt P56704 19-352, looked up)
Protein Wnt-3a: SYPIWWSLAVGPQYSSLGSQPILCASIPGLVPKQLRFCRNYVEIMPSVAEGIKIGIQECQHQFRGRRWNCTTVHDSLAIFGPVLDKATRESAFVHAIASAGVAFAVTRSCAEGTAAICGCSSRHQGSPGKGWKWGGCSEDIEFGGMVSREFADARENRPDARSAMNRHNNEAGRQAIASHMHLKCKCHGLSGSCEVKTCWWSQPDFRAIGDFLKDKYDSASEMVVEKHRESRGWVETLRPRYTYFKVPTERDLVYYEASPNFCEPNPETGSFGTRDRTCNVSSHGIDGCDLLCCGRGHNARAERRREKCRCVFHWCCYVSCQECTRVYDVHTCK
Hepatocytes [3]
  # of genes having significantly altered expression: 1142

B4: Nodal (protein, UniProt Q96S42 238-347, looked up)
Nodal homolog: HHLPDRSQLCRKVKFQVDFNLIGWGSWIIYPKQYNAYRCEGECPNPVGEEFHPTNHAYIQSLLKRYQPHRVPSTCCAPVKTKPLSMLYVDNGRVLLDHHKDMIVEECGCL
Hepatocytes [3]
  # of genes having significantly altered expression: 863

B5: Anti-mullerian hormone (protein, UniProt P03971 452-560, looked up)
Muellerian-inhibiting factor: SAGATAADGPCALRELSVDLRAERSVLIPETYQANNCQGVCGWPQSDRNPRYGNHVVLLLKMQVRGAALARPPCCVPTAYAGKLLISLSEERISAHHVPNMVATECGCR
Hepatocytes [3]
  # of genes having significantly altered expression: 912
